As usually defined, the IC50 is the concentration that gives 50% inhibition. Read a high IC50 as weaker potency.

Drawing on US11299487B2, “Compounds and compositions as modulators of TLR signaling” (Neuropore Therapies, Inc., priority 2019, dated 2022), this text covers IC50 for 22 compounds.

Molecules are shown by their SMILES.

Test [1] has as its target T1, human TLR2 (Homo sapiens, UniProt O60603).
T1 construct: host or cells: HEK-Blue hTLR2 (HEK-293)
In words: HEK-Blue hTLR2 antagonism assay (SEAP reporter) with agonist Pam2CSK4 (TLR2/6 agonist). The note with it: Table B; HEK-Blue hTLR2 cells, ~3×EC50 Pam2CSK4, 18 h, SEAP OD 655 nm, 8-point dilutions. Format: cell-based. How it is done: (§1) Synthetic diacylated lipoprotein (Pam2CSK4, TLR2/6 agonist) and synthetic triacylated lipoprotein (Pam3CSK4, TLR1/2 agonist) were obtained from InvivoGen and were dissolved in endotoxin-free water to a concentration 1 mg/mL, vortexed until complete solubilization, and stored in aliquots at −20° C. Prior to addition to cells, an aliquot of the dissolved ligand was vortexed shortly and then was diluted in medium to 25 ng/mL Pam2CSK4 or 1000 ng/mL Pam3CSK4.
(§2) Test compounds were solubilized fresh to 10-20 mM stocks in DMSO and sonicated for 5-10 minutes in a water bath sonicator. Serial dilutions were prepared in DMSO, and then diluted in medium. The final concentration of DMSO used in the assay was 1%.
(§3) HEK-Blue hTLR2 reporter cells (InvivoGen) are HEK-293 cells stably expressing both the human TLR2 gene and a secreted embryonic alkaline phosphatase (SEAP) reporter construct downstream of NFκB promotor sites. HEK-Blue hTLR2 reporters were cultured according to manufacturer's protocol using Dulbecco's Modified Eagle Medium (DMEM; Gibco) containing 1× GlutaMax (Gibco), 10% heat-inactivated Fetal Bovine Serum (Gibco), Pen-Strep (50 U/mL penicillin, 50 μg/mL streptomycin, Gibco), 100 μg/mL Normocin (InvivoGen), and the selective antibiotic, 1×HEK-Blue Selection (InvivoGen). Quanti-Blue reagent (InvivoGen) for detection and quantification of secreted alkaline phosphatase was dissolved in 100 mL of endotoxin-free water, warmed to 37° C. for 30 minutes and then filtered using a 0.2 μm membrane.
(§4) On day 1, 50 μL of each test compound dilution in duplicates or a vehicle control was added to each well of a 96-well plate followed by addition of 150 μL of HEK-Blue hTLR2 cell suspension (1×10^5 cells/well) and incubated at 37° C./5% CO2 for 2 h. Next, 50 μL of an approximate 3×EC50 concentration of each agonist (Pam2CSK4 or Pam3CSK4) was added to the wells containing test compounds or the vehicle control. The plates were then incubated at 37° C./5% CO2 for 18 h. For each assay run, non-treated HEK-Blue hTLR2 cells were treated with serial dilutions of agonists to determine EC50 values for the respective run.
(§5) On day 2, secreted alkaline phosphatase (SEAP) activity was detected in cell culture supernatants. In brief, 20 μL was collected from each well and transferred to a 96-well plate. Next, 200 μL of Quanti-Blue detection reagent was added to each well. Plates were incubated at room temperature for 15 min. and SEAP activity was assessed by spectrophotometer OD reading at 655 nm. […] IC50 values were calculated based on 8-point dilutions for each compound.

Test [2] deals with T1, human TLR2. Briefly: HEK-Blue hTLR2 antagonism assay (SEAP reporter) with agonist Pam3CSK4 (TLR1/2 agonist). Format: cell-based. The note with it: Table B; HEK-Blue hTLR2 cells, ~3×EC50 Pam3CSK4, 18 h, SEAP OD 655 nm, 8-point dilutions. The procedure: as §1, §2, §3, §4, §5

T1 sequence (O60603 21-784): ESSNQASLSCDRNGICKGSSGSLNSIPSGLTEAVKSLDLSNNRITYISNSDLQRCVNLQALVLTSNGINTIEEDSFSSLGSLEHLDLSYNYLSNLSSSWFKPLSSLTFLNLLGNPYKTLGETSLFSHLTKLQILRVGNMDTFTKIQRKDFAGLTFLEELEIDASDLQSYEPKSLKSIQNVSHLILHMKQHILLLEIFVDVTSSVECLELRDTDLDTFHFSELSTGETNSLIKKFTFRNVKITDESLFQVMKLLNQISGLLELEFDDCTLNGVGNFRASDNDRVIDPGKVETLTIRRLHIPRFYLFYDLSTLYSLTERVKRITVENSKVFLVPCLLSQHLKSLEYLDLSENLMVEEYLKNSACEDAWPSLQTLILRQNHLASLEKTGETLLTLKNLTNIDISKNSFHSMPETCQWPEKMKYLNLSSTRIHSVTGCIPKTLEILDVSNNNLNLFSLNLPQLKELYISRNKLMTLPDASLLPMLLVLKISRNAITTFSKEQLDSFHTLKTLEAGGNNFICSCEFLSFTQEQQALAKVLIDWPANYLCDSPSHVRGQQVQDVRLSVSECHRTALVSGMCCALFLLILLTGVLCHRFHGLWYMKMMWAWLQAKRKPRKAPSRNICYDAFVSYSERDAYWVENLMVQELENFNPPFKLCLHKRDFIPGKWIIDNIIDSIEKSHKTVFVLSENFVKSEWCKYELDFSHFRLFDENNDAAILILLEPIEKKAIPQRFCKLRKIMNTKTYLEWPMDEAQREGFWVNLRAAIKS

Regarding `Cn1cc(-c2ccc(NC(=O)c3cc(F)c(O)c(C=O)c3)cc2)cn1` [Compound B63, 3-fluoro-5-formyl-4-hydroxy-N-(4-(1-methyl-1H-pyrazol-4-yl)phenyl)benzamide], the figures for the IC50 at human TLR2 [1] and on human TLR2 [2] were 30.1 µM and 11.3 µM, respectively.

In the case of `O=Cc1cc(NC(=O)Nc2ccc(F)cc2)cc(F)c1O` [Compound B64, 1-(3-fluoro-5-formyl-4-hydroxyphenyl)-3-(4-fluorophenyl)urea], the IC50 at human TLR2 [1] stood at 10.9 µM; at human TLR2 [2] it was 8 µM.

As to `O=Cc1cc(C(=O)Nc2ccc(N3CCCCC3)cc2)cc(F)c1O` [Compound B66, 3-fluoro-5-formyl-4-hydroxy-N-(4-(piperidin-1-yl)phenyl)benzamide], the IC50 on human TLR2 [1] was 1.8 µM; on human TLR2 [2], 1 µM.

As for `O=Cc1cc(C(=O)Nc2ccc(N3CCN(C4CC4)CC3)cc2)cc(F)c1O` [Compound B69, N-(4-(4-cyclopropylpiperazin-1-yl)phenyl)-3-fluoro-5-formyl-4-hydroxybenzamide], the IC50 on human TLR2 [1] came out at 7.6 µM; on human TLR2 [2], 2.3 µM.

As for `O=Cc1cc(C(=O)Nc2ccc(N3CCCN(C4CC4)CC3)cc2)cc(F)c1O` [Compound B70, N-(4-(4-cyclopropyl-1,4-diazepan-1-yl)phenyl)-3-fluoro-5-formyl-4-hydroxybenzamide], the IC50 came out at 11.5 µM on human TLR2 [1] and 6.5 µM on human TLR2 [2].

Regarding `O=Cc1cc(C(=O)Nc2cccc(N3CCCCC3)c2)cc(F)c1O` [Compound B72, 3-fluoro-5-formyl-4-hydroxy-N-(3-(piperidin-1-yl)phenyl)benzamide], the results for the IC50 on human TLR2 [1] and at human TLR2 [2] were 4.6 µM and 2.4 µM, respectively.

As for `O=Cc1cc(C(=O)Nc2ccc(N3CC4(CC4)CC3=O)cc2)cc(F)c1O` [Compound B78, 3-fluoro-5-formyl-4-hydroxy-N-(4-(6-oxo-5-azaspiro[2.4]heptan-5-yl)phenyl)benzamide], the concentration for half-maximal inhibition (IC50) is 34.4 µM at human TLR2 [1] and 18.5 µM on human TLR2 [2].

As to `O=Cc1cc(C(=O)Nc2ccc(N3CCC4(CC4)C3)cc2)cc(F)c1O` [Compound B79, N-(4-(5-azaspiro[2.4]heptan-5-yl)phenyl)-3-fluoro-5-formyl-4-hydroxybenzamide], the IC50 on human TLR2 [1] came to 4.1 µM; on human TLR2 [2] it was 1.4 µM.

For `O=Cc1cc(C#Cc2ccc(C(=O)NC3CC3)cc2)cc(F)c1O` [Compound B80, N-cyclopropyl-4-((3-fluoro-5-formyl-4-hydroxyphenyl)ethynyl)benzamide], the IC50 is 15.5 µM at human TLR2 [1] and 35.9 µM at human TLR2 [2].

As for `O=Cc1cc(C(=O)Nc2ccc(N3Cc4ccccc4C3)cc2)cc(F)c1O` [Compound B81, 3-fluoro-5-formyl-4-hydroxy-N-(4-(isoindolin-2-yl)phenyl)benzamide], the IC50 at human TLR2 [1] stood at 1 µM; on human TLR2 [2], 0.5 µM.

`O=Cc1cc(C(=O)Nc2ccc(N3CCc4ccccc4C3)cc2)cc(F)c1O` [Compound B82, N-(4-(3,4-dihydroisoquinolin-2(1H)-yl)phenyl)-3-fluoro-5-formyl-4-hydroxybenzamide]: the IC50 at human TLR2 [1] worked out at 1.2 µM; on human TLR2 [2], 0.7 µM.

In the case of `O=Cc1cc(C(=O)Nc2ccc(N3CCN(c4ccccc4)CC3)cc2)cc(F)c1O` [Compound B83, 3-fluoro-5-formyl-4-hydroxy-N-(4-(4-phenylpiperazin-1-yl)phenyl)benzamide], the IC50 at human TLR2 [1] came out at 1 µM; at human TLR2 [2], 0.3 µM.

Take `O=Cc1cc(C(=O)Nc2ccc(N3CCC(N4CCCC4)CC3)cc2)cc(F)c1O` [Compound B84, 3-fluoro-5-formyl-4-hydroxy-N-(4-(4-(pyrrolidin-1-yl)piperidin-1-yl)phenyl)benzamide]: the IC50 stood at 33.9 µM at human TLR2 [1] and 14.3 µM at human TLR2 [2].

As for `O=Cc1cc(C(=O)Nc2ccc(N3Cc4ccccc4C3)nc2)cc(F)c1O` [Compound B86, 3-fluoro-5-formyl-4-hydroxy-N-(6-(isoindolin-2-yl)pyridin-3-yl)benzamide], the values for the IC50 at human TLR2 [1] and on human TLR2 [2] were 4.3 µM and 1.8 µM, respectively.

As for `O=Cc1cc(C(=O)Nc2ccc(N3CCOc4ccccc43)cc2)cc(F)c1O` [Compound B90, N-(4-(2,3-dihydro-4H-benzo[b][1,4]oxazin-4-yl)phenyl)-3-fluoro-5-formyl-4-hydroxybenzamide], the IC50 stood at 2.9 µM on human TLR2 [1] and 1.9 µM on human TLR2 [2].

Turning to `O=Cc1cc(C(=O)Nc2ccc(N3CCCC3)c(C(F)(F)F)c2)cc(F)c1O` [Compound B91, 3-fluoro-5-formyl-4-hydroxy-N-(4-(pyrrolidin-1-yl)-3-(trifluoromethyl)phenyl) benzamide], the results for the IC50 at human TLR2 [1] and on human TLR2 [2] were 2.2 µM and 1.6 µM, respectively.

As to `CN(CC(C)(C)C)c1ccc(NC(=O)c2cc(F)c(O)c(C=O)c2)cc1` [Compound B94, 3-fluoro-5-formyl-4-hydroxy-N-(4-(methyl(neopentyl)amino)phenyl)benzamide], the IC50 came out at 1 µM at human TLR2 [1] and 0.9 µM on human TLR2 [2].

For the compound `O=Cc1cc(C(=O)Nc2ccc(N3C4CCC3CC4)cc2)cc(F)c1O` [Compound B95, N-(4-(7-azabicyclo[2.2.1]heptan-7-yl)phenyl)-3-fluoro-5-formyl-4-hydroxybenzamide], the IC50 worked out at 3.7 µM at human TLR2 [1] and 2.8 µM at human TLR2 [2].

In the case of `O=Cc1cc(C(=O)Nc2ccc(N3C4CCCC3CC4)cc2)cc(F)c1O` [Compound B96, N-(4-(8-azabicyclo[3.2.1]octan-8-yl)phenyl)-3-fluoro-5-formyl-4-hydroxybenzamide], the IC50 on human TLR2 [1] is 1.4 µM; on human TLR2 [2], 1.1 µM.

On to `CC1(C)CN(c2ccc(NC(=O)c3cc(F)c(O)c(C=O)c3)cn2)c2ccc(F)cc21` [Compound B99, 3-fluoro-N-(6-(5-fluoro-3,3-dimethylindolin-1-yl)pyridin-3-yl)-5-formyl-4-hydroxybenzamide], for which the IC50 on human TLR2 [1] amounted to 0.6 µM; on human TLR2 [2], 0.5 µM.

For the compound `O=Cc1cc(C(=O)Nc2ccc(N3CCN(c4ccccc4)CC3)nc2)cc(F)c1O` [Compound B102, 3-fluoro-5-formyl-4-hydroxy-N-(6-(4-phenylpiperazin-1-yl)pyridin-3-yl)benzamide], the IC50 is 2 µM at human TLR2 [1] and 1 µM at human TLR2 [2].

With `O=Cc1cc(C(=O)Nc2ccc(N3C[C@H]4CCC[C@H]4C3)nc2)cc(F)c1O` [Compound B103, 3-fluoro-5-formyl-N-(6-((3aR,6aS)-hexahydrocyclopenta[c]pyrrol-2(1H)-yl)pyridin-3-yl)-4-hydroxybenzamide], the results for the IC50 on human TLR2 [1] and on human TLR2 [2] were 1.7 µM and 1 µM, respectively.
